Laboratory results published in US7495126B2, “Process of preparation of substituted tetrafluorobenzylaniline compound and its pharmaceutically approved salts” (priority 2005, dated 2009).

Tests used:
physchem = assay type: physicochemical; conditions: 25 °C, water, thermodynamic from solid
[1] = Stability test of injectable preparation (salt in WFI, HPLC); conditions: for Residual amount: in WFI 2 mg/ml
[2] = Stability test of oral preparation (powder in vial, HPLC); conditions: for stability in powder form: high temperatures; for Residual amount: powder (solid)
Method: It was then stored at different temperatures (25° C., 40° C., 60° C.) for 6 months and the amount of active ingredients in powder were measured by HPLC.

[3] = Acute toxicity test in rats, single intravenous dose; assay type: in vivo; conditions: male, Sprague-Dawley, rat, in vivo, iv; rats, single i.v. dose, 14 days; read-out: Estimated LD50
[4] = test system: SD (Sprague Dawley) male rats; test: as above; assay type: in vivo; conditions: for Number of dead animals/Number of drug-treated animals: 14 days after administration; for toxicity compared with free base: rats, i.v., Tables 7-9

With O=C([O-])c1cc(NCc2c(F)c(F)c(C(F)(F)F)c(F)c2F)ccc1O.[K+] [potassium salt, potassium 2-hydroxy-5-(2,3,5,6-tetrafluoro-4-trifluoromethyl-benzylamino)benzoate] the solubility at 48 h (physchem) was 590 mg/mL, the Residual amount ([1]; 25° C., day 7) was 103.92 ± 1.20% and the “stability profile in injectable preparation” value ([1]; in WFI, 25-60° C., 6 months) was “better than that of sodium- and lithium-salt compound”. For the same compound, the “stability in powder form” value [2] was “relatively stable in high temperatures”, the Residual amount ([2]; 25° C., day 0) was 100.43 ± 0.30% and the Residual amount ([2]; 25° C., day 30) was 100.31 ± 0.25%. The Residual amount ([2]; 25° C., day 60) was 100.20 ± 0.55%, the Residual amount ([2]; 25° C., day 90) was 100.17 ± 0.46% and the Residual amount ([2]; 25° C., day 120) was 100.07 ± 0.43%. It also gave a Residual amount ([2]; 25° C., day 180) of 100.03 ± 0.80%, a Residual amount ([2]; 40° C., day 0) of 100.43 ± 0.30% and a Residual amount ([2]; 40° C., day 30) of 100.28 ± 1.10%. For the same compound, the Residual amount ([2]; 40° C., day 60) was 100.14 ± 0.80%, the Residual amount ([2]; 40° C., day 90) was 100.10 ± 0.71% and the Residual amount ([2]; 40° C., day 120) was 99.81 ± 0.78%. It also gave a Residual amount ([2]; 40° C., day 180) of 99.78 ± 0.31%, a Residual amount ([2]; 60° C., day 0) of 100.43 ± 0.30% and a Residual amount ([2]; 60° C., day 30) of 99.60 ± 0.50%. For the same compound, the Residual amount ([2]; 60° C., day 60) was 99.56 ± 0.85%, the Residual amount ([2]; 60° C., day 90) was 99.27 ± 0.80% and the Residual amount ([2]; 60° C., day 120) was 99.03 ± 0.90%. The Residual amount ([2]; 60° C., day 180) was 98.87 ± 0.92%, the LD50 at 14 day [3] was 200 to 250 mg/kg and the “Number of dead animals/Number of drug-treated animals” value ([4]; 50 mg/kg single i.v. dose) was 0/6. The “Number of dead animals/Number of drug-treated animals” value ([4]; 100 mg/kg single i.v. dose) was 0/6, the “Number of dead animals/Number of drug-treated animals” value ([4]; 150 mg/kg single i.v. dose) was 0/6 and the “Number of dead animals/Number of drug-treated animals” value ([4]; 200 mg/kg single i.v. dose) was 0/6. The “Number of dead animals/Number of drug-treated animals” value ([4]; 250 mg/kg single i.v. dose) was 3/3, the “Number of dead animals/Number of drug-treated animals” value ([4]; 300 mg/kg single i.v. dose) was 1/1 and the “Number of dead animals/Number of drug-treated animals” value ([4]; 500 mg/kg single i.v. dose) was 2/2. For the same compound, the “toxicity compared with free base” value [4] was “less toxicity than free base”.

Compound O=C([O-])c1cc(NCc2c(F)c(F)c(C(F)(F)F)c(F)c2F)ccc1O.[Na+] [sodium salt, sodium 2-hydroxy-5-(2,3,5,6-tetrafluoro-4-trifluoromethyl-benzylamino)benzoate] has a solubility at 48 h (physchem) of 25 to 80 mg/mL, a Residual amount ([1]; 25° C., day 0) of 104.15 ± 0.54% and a Residual amount ([1]; 25° C., day 3) of 101.89 ± 1.16%. The Residual amount ([1]; 25° C., day 7) was 100.59 ± 0.19%, the Residual amount ([1]; 25° C., day 14) was 101.63 ± 0.19% and the Residual amount ([1]; 25° C., day 21) was 99.25 ± 1.41%. It also gave a Residual amount ([1]; 25° C., day 30) of 98.50 ± 1.64%, a Residual amount ([1]; 25° C., day 60) of 98.52 ± 0.02% and a Residual amount ([1]; 25° C., day 90) of 94.04 ± 4.28%. For the same compound, the Residual amount ([1]; 25° C., day 120) was 92.79 ± 1.01%, the Residual amount ([1]; 25° C., day 150) was 90.18 ± 3.14% and the Residual amount ([1]; 25° C., day 180) was 85.56 ± 4.58%. The Residual amount ([1]; 40° C., day 0) was 104.15 ± 0.54%, the Residual amount ([1]; 40° C., day 3) was 102.77 ± 0.08% and the Residual amount ([1]; 40° C., day 7) was 98.54 ± 0.71%. It also gave a Residual amount ([1]; 40° C., day 14) of 99.56 ± 0.72%, a Residual amount ([1]; 40° C., day 21) of 95.98 ± 1.50% and a Residual amount ([1]; 40° C., day 30) of 95.17 ± 0.07%. The Residual amount ([1]; 40° C., day 60) was 91.51 ± 1.17%, the Residual amount ([1]; 40° C., day 90) was 86.36 ± 0.90% and the Residual amount ([1]; 40° C., day 120) was 79.02 ± 1.05%. The Residual amount ([1]; 40° C., day 150) was 77.42 ± 0.71%, the Residual amount ([1]; 40° C., day 180) was 72.32 ± 0.38% and the Residual amount ([1]; 60° C., day 0) was 104.15 ± 0.54%. It also gave a Residual amount ([1]; 60° C., day 3) of 99.39 ± 0.43%, a Residual amount ([1]; 60° C., day 7) of 92.01 ± 1.27% and a Residual amount ([1]; 60° C., day 14) of 92.96 ± 1.28%. The Residual amount ([1]; 60° C., day 21) was 84.54 ± 1.34%, the Residual amount ([1]; 60° C., day 30) was 82.88 ± 4.35% and the Residual amount ([1]; 60° C., day 60) was 70.25 ± 4.27%. The Residual amount ([1]; 60° C., day 90) was 56.00 ± 11.70%, the Residual amount ([1]; 60° C., day 120) was 53.43 ± 6.30% and the Residual amount ([1]; 60° C., day 150) was 40.37 ± 14.41%. The Residual amount ([1]; 60° C., day 180) was 37.10 ± 12.35%, the “stability in powder form” value [2] was “relatively stable in high temperatures” and the Residual amount ([2]; 25° C., day 0) was 101.33 ± 1.02%. It also gave a Residual amount ([2]; 25° C., day 7) of 100.75 ± 6.24%, a Residual amount ([2]; 25° C., day 14) of 100.45 ± 1.24% and a Residual amount ([2]; 25° C., day 21) of 99.76 ± 0.70%. For the same compound, the Residual amount ([2]; 25° C., day 30) was 99.61 ± 3.21%, the Residual amount ([2]; 25° C., day 60) was 99.60 ± 0.16% and the Residual amount ([2]; 25° C., day 120) was 99.51 ± 1.70%. The Residual amount ([2]; 25° C., day 180) was 99.19 ± 2.28%, the Residual amount ([2]; 40° C., day 0) was 101.33 ± 1.02% and the Residual amount ([2]; 40° C., day 7) was 100.81 ± 3.35%. The Residual amount ([2]; 40° C., day 14) was 100.69 ± 0.29%, the Residual amount ([2]; 40° C., day 21) was 100.57 ± 0.48% and the Residual amount ([2]; 40° C., day 30) was 100.46 ± 0.27%. The Residual amount ([2]; 40° C., day 60) was 100.07 ± 0.16%, the Residual amount ([2]; 40° C., day 120) was 99.94 ± 1.15% and the Residual amount ([2]; 40° C., day 180) was 99.89 ± 1.11%. For the same compound, the Residual amount ([2]; 60° C., day 0) was 101.33 ± 1.02%, the Residual amount ([2]; 60° C., day 7) was 101.27 ± 4.45% and the Residual amount ([2]; 60° C., day 14) was 101.14 ± 0.50%. It also gave a Residual amount ([2]; 60° C., day 21) of 100.15 ± 1.14%, a Residual amount ([2]; 60° C., day 30) of 100.10 ± 0.75% and a Residual amount ([2]; 60° C., day 60) of 99.91 ± 1.18%. For the same compound, the Residual amount ([2]; 60° C., day 120) was 99.81 ± 2.28%, the Residual amount ([2]; 60° C., day 180) was 99.75 ± 0.20% and the LD50 at 14 day [3] was 225 to 250 mg/kg. The “Number of dead animals/Number of drug-treated animals” value ([4]; 50 mg/kg single i.v. dose) was 0/5, the “Number of dead animals/Number of drug-treated animals” value ([4]; 100 mg/kg single i.v. dose) was 0/5 and the “Number of dead animals/Number of drug-treated animals” value ([4]; 150 mg/kg single i.v. dose) was 0/7. The “Number of dead animals/Number of drug-treated animals” value ([4]; 175 mg/kg single i.v. dose) was 1/7, the “Number of dead animals/Number of drug-treated animals” value ([4]; 200 mg/kg single i.v. dose) was 2/7 and the “Number of dead animals/Number of drug-treated animals” value ([4]; 225 mg/kg single i.v. dose) was 2/7. For the same compound, the “Number of dead animals/Number of drug-treated animals” value ([4]; 250 mg/kg single i.v. dose) was 5/5 and the “toxicity compared with free base” value [4] was “less toxicity than free base”.
